For series [1], the target named is T1, Muscarinic acetylcholine receptor M5 (Homo sapiens) (UniProt P08912).
T1 sequence (whole entry): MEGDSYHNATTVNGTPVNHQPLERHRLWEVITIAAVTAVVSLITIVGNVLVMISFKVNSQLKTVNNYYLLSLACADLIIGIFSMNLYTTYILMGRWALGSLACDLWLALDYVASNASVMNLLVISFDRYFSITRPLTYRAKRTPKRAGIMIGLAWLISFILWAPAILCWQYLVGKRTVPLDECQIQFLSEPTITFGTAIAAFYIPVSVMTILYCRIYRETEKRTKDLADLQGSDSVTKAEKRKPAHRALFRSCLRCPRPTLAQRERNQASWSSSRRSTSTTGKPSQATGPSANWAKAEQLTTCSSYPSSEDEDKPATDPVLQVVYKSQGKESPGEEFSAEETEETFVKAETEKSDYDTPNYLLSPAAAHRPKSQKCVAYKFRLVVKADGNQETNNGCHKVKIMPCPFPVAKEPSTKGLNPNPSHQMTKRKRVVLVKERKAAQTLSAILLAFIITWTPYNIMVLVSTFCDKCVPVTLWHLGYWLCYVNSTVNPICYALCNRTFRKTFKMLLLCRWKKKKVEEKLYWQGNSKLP
The conditions noted are these: CHO.

In series [2] the target is T2, Muscarinic acetylcholine receptor M5 (Rattus norvegicus, UniProt P08911).
T2 sequence (P08911 whole entry): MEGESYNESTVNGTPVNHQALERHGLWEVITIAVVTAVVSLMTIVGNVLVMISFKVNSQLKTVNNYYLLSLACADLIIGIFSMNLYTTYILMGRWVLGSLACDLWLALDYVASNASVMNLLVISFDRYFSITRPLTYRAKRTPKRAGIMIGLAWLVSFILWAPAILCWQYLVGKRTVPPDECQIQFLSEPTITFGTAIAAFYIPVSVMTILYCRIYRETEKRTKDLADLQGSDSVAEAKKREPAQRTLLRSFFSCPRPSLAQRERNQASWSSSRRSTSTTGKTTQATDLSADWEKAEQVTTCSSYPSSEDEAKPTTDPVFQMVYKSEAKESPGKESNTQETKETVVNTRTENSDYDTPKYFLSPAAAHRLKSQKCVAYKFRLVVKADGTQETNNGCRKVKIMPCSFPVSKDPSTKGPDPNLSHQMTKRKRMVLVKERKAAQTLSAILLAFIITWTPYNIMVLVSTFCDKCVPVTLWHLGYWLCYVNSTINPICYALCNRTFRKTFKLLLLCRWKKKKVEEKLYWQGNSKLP
Put plainly: Negative allosteric modulation of rat muscarinic acetylcholine receptor M5 expressed in CHO cells assessed as inhibition of acetylcholine-induced calcium mobilization incubated for 150 secs prior to acetylcholine induction by Fluo4AM staining-based fluorescence assay. It counts as functional, cell-based. For orientation: Calcium flux is commonly read through the fluorescence of an indicator in the cells.

A short description of series [3]: (§1) Fraction unbound in human plasma. It counts as ADME, cell-free.
The target in series [4] is T3, Muscarinic acetylcholine receptor M5 (Homo sapiens, UniProt P08912).
T3 sequence (P08912 whole entry): T1 sequence (whole entry)
Put plainly: Negative allosteric modulation of human muscarinic acetylcholine receptor M5 expressed in CHO cells assessed as inhibition of acetylcholine-induced calcium mobilization incubated for 150 secs prior to acetylcholine induction by Fluo4AM staining-based fluorescence assay.

The nature of series [5]: Intrinsic clearance in rat liver microsomes. It counts as ADME. To be noted: read-out: CLH. For orientation: Liver microsomes are vesicles of endoplasmic reticulum, rich in cytochrome P450 enzymes.
Series [6] is described as follows: Intrinsic clearance in human hepatocytes. It counts as ADME, cell-based, Hepatocyte. To be noted: read-out: CLH.
Series [7] can be described thus: Intrinsic clearance in rat hepatocytes. It counts as ADME, cell-based, Hepatocyte. To be noted: read-out: CLH.
For series [8], the system named is Plasma. The series is described as §1. It counts as ADME, cell-free.
Series [9] deals with Plasma. The series is described as follows: Fraction unbound in Sprague-Dawley rat plasma. It counts as ADME, cell-free.

Where “and” joins values, the source holds several entries; their conditions need not be identical. Equal entries are not always repeated. Calls of active or inactive are those of the source. The calls are words filed in the database; no cut-off is given here.

For `COc1ccc([C@]23c4ccccc4C(=O)N2CCN3C(=O)c2cc(F)c(F)c(F)c2)cc1C`, the pIC50 entry in series [1] was “inactive”. Moreover, the IC50 entry in series [2] (cho) and in [4] (cho) was “Not Active” in each case. Further, the fraction unbound (usually the share of the substance not bound to proteins or other matrix) in series [3] came out at 0.013. Take `[2H]C([2H])([2H])Oc1ccc([C@@]23c4ccccc4C(=O)N2CCN3C(=O)c2cc(F)c(F)c(F)c2)cc1C`: the CLint scaled in [5] was determined as 275 mL/min/kg; in series [6], 16.3 mL/min/kg; in series [7], 55.8 mL/min/kg.

Take `O=C(c1ccc(F)c(F)c1)N1CCN2C(=O)c3ccccc3C12c1ccc(Cl)cc1` (racemic): the Fu is listed as 0.015 in the series with Plasma [8] and 0.031 in the series with Plasma [9]. As to `CC(C)Oc1ccc(C23c4ccccc4C(=O)N2CCN3C(=O)c2ccc(F)c(F)c2)cc1` (racemic), the half-maximal inhibitory concentration (IC50) – broadly, the concentration at which inhibition is half-maximal – in [4] is over 30 µM. The same measure, in the same setting: to `O=C(c1ccc(F)c(F)c1)N1CCN2C(=O)c3ccccc3C12c1ccc2c(c1)OCO2` (racemic) belongs 1.3 µM.

For `COc1ccc(C23c4ccccc4C(=O)N2CCN3C(=O)c2ccc(F)c(F)c2)cc1F` (racemic), in [4], the IC50 worked out at 3.3 µM. On to `COc1ccc(C23c4ccccc4C(=O)N2CCN3C(=O)c2ccc(F)c(F)c2)cc1Cl` (racemic), for which, in series [4], the IC50 is 5.5 µM. Still for that read-out and setting: to `COc1ccc(C23c4ccccc4C(=O)N2CCN3C(=O)c2ccc(F)c(F)c2)cc1C` (racemic) belongs 1.2 µM; to `COc1cc(C23c4ccccc4C(=O)N2CCN3C(=O)c2ccc(F)c(F)c2)ccc1F` (racemic), 2.7 µM; to `COc1cc(C23c4ccccc4C(=O)N2CCN3C(=O)c2ccc(F)c(F)c2)ccc1Cl` (racemic), 2 µM. The same measure, in the same setting: then `COc1cc(C23c4ccccc4C(=O)N2CCN3C(=O)c2ccc(F)c(F)c2)ccc1C` (racemic), with 1.3 µM. Take `CCOc1ccc(C23c4ccccc4C(=O)N2CCN3C(=O)c2cc(F)c(F)c(F)c2)cc1` (racemic): the IC50 in series [4] was over 30 µM.

For the molecule `CC(C)Oc1ccc(C23c4ccccc4C(=O)N2CCN3C(=O)c2cc(F)c(F)c(F)c2)cc1` (racemic), the concentration for half-maximal inhibition (IC50) in [4] came to 2.4 µM. On the same count and under the same terms, to `O=C(c1cc(F)c(F)c(F)c1)N1CCN2C(=O)c3ccccc3C12c1ccc2c(c1)OCO2` (racemic) belongs 1 µM.

For the molecule `COc1ccc(C23c4ccccc4C(=O)N2CCN3C(=O)c2cc(F)c(F)c(F)c2)cc1F` (racemic), the IC50 in series [4] is over 30 µM. The same measure, in the same setting: to `COc1ccc(C23c4ccccc4C(=O)N2CCN3C(=O)c2cc(F)c(F)c(F)c2)cc1Cl` (racemic) belongs 1.4 µM. Turning to `COc1ccc(C23c4ccccc4C(=O)N2CCN3C(=O)c2cc(F)c(F)c(F)c2)cc1C` (racemic), the IC50 in series [2] (read-out: IC50) is 0.963 µM; in series [4], 0.51 µM.

In the case of `COc1cc(C23c4ccccc4C(=O)N2CCN3C(=O)c2cc(F)c(F)c(F)c2)ccc1F` (racemic), the IC50 in [4] stood at 0.7 µM.

On to `COc1cc(C23c4ccccc4C(=O)N2CCN3C(=O)c2cc(F)c(F)c(F)c2)ccc1Cl` (racemic), for which the concentration for half-maximal inhibition (IC50) in [4] came out at 1.6 µM. Same read-out and setting: to `COc1cc(C23c4ccccc4C(=O)N2CCN3C(=O)c2cc(F)c(F)c(F)c2)ccc1C` (racemic) belongs 0.9 µM; to `CCOc1ccc(C23c4ccccc4C(=O)N2CCN3C(=O)c2ccc(OC(C)C)cc2)cc1` (racemic), 4.1 µM. Same read-out and setting: then `CC(C)Oc1ccc(C(=O)N2CCN3C(=O)c4ccccc4C23c2ccc(OC(C)C)cc2)cc1` (racemic), with 1.9 µM. `CC(C)Oc1ccc(C(=O)N2CCN3C(=O)c4ccccc4C23c2ccc3c(c2)OCO3)cc1` (racemic): the IC50 in series [4] is 1.1 µM. Regarding `COc1ccc(C23c4ccccc4C(=O)N2CCN3C(=O)c2ccc(OC(C)C)cc2)cc1F` (racemic), the IC50 in series [4] came out at 3.2 µM. Still for that read-out and setting: then `COc1ccc(C23c4ccccc4C(=O)N2CCN3C(=O)c2ccc(OC(C)C)cc2)cc1Cl` (racemic), with 3.3 µM; and `COc1ccc(C23c4ccccc4C(=O)N2CCN3C(=O)c2ccc(OC(C)C)cc2)cc1C` (racemic), with 1.3 µM; and `COc1cc(C23c4ccccc4C(=O)N2CCN3C(=O)c2ccc(OC(C)C)cc2)ccc1F` (racemic), with 1.3 µM.

With `COc1cc(C23c4ccccc4C(=O)N2CCN3C(=O)c2ccc(OC(C)C)cc2)ccc1Cl` (racemic), the 50% inhibitory concentration (IC50) in series [4] is 6.4 µM. For `COc1cc(C23c4ccccc4C(=O)N2CCN3C(=O)c2ccc(OC(C)C)cc2)ccc1C` (racemic), in series [4], the IC50 turned out to be 2.2 µM. Take `COc1ccccc1C(=O)N1CCN2C(=O)c3ccccc3C12c1ccc(Cl)cc1` (racemic): the IC50 in series [4] was over 10 µM. Still for that read-out and setting: to `COc1cccc(C(=O)N2CCN3C(=O)c4ccccc4C23c2ccc(Cl)cc2)c1` (racemic) belongs 6.6 µM. The same measure, in the same setting: to `COc1ccc(C(=O)N2CCN3C(=O)c4ccccc4C23c2ccc(Cl)cc2)cc1` (racemic) belongs 1.8 µM; to `CCOc1ccc(C(=O)N2CCN3C(=O)c4ccccc4C23c2ccc(Cl)cc2)cc1` (racemic), 0.85 µM. Take `CC(C)Oc1ccc(C(=O)N2CCN3C(=O)c4ccccc4C23c2ccc(Cl)cc2)cc1` (racemic): the IC50 in series [4] amounted to 0.79 µM. On the same count and under the same terms, to `O=C(c1cc(F)c(F)c(F)c1)N1CCN2C(=O)c3ccccc3C12c1ccc(Cl)cc1` (racemic) belongs 0.61 µM. With `CN(C)c1ccc(C(=O)N2CCN3C(=O)c4ccccc4C23c2ccc(Cl)cc2)cc1` (racemic), the concentration for half-maximal inhibition (IC50) in [4] is over 10 µM.

Regarding `O=C(c1ccc(F)nc1)N1CCN2C(=O)c3ccccc3C12c1ccc(Cl)cc1` (racemic), the 50% inhibitory concentration (IC50) in series [4] was over 10 µM.

Take `O=C(c1ccnc(F)c1)N1CCN2C(=O)c3ccccc3C12c1ccc(Cl)cc1` (racemic): the IC50 in series [4] came to 5.8 µM. In the case of `O=C(c1ccnnc1)N1CCN2C(=O)c3ccccc3C12c1ccc(Cl)cc1` (racemic), the IC50 in [4] is over 10 µM. For the molecule `O=C(c1cc(F)nc(F)c1)N1CCN2C(=O)c3ccccc3C12c1ccc(Cl)cc1` (racemic), the concentration for half-maximal inhibition (IC50) in series [4] was over 10 µM. The same measure, in the same setting: then `COc1ccccc1C12c3ccccc3C(=O)N1CCN2C(=O)c1ccc(F)c(F)c1` (racemic), with 5.62 µM and 5.5 µM. On the same count and under the same terms, then `COc1cccc(C23c4ccccc4C(=O)N2CCN3C(=O)c2ccc(F)c(F)c2)c1` (racemic), with 1.6 µM. On to `COc1ccc(C23c4ccccc4C(=O)N2CCN3C(=O)c2ccc(F)c(F)c2)cc1` (racemic), for which the Fu with Plasma [8] worked out at 0.037; in the series on Plasma [9], 0.064. Also, in [4], the half-inhibitory concentration (IC50) turned out to be 1.3 µM. Regarding `O=C(c1ccc(F)c(F)c1)N1CCN2C(=O)c3ccccc3C12c1ccc(Oc2ccccc2)cc1` (racemic), the IC50 in [4] is over 10 µM. Take `O=C(c1ccc(F)c(F)c1)N1CCN2C(=O)c3ccccc3C12C1CCCCC1` (racemic): the values for the Fu with Plasma [8] and in the series with Plasma [9] were 0.008 and 0.016, respectively. For the same molecule, in [4], the 50% inhibitory concentration (IC50) worked out at 2.1 µM. Regarding `O=C(c1ccc(F)c(F)c1)N1CCN2C(=O)c3ccccc3C12C1CCCC1` (racemic), the IC50 in series [4] turned out to be 2.4 µM. Same read-out and setting: to `O=C(c1ccc(F)c(F)c1)N1CCN2C(=O)c3ccccc3C12C1CCC1` (racemic) belongs over 10 µM; to `O=C(c1ccc(F)c(F)c1)N1CCN2C(=O)c3ccccc3C12C1CC1` (racemic), over 10 µM. Still for that read-out and setting: to `O=C(c1ccc(F)c(F)c1)N1CCN2C(=O)c3ccccc3C12C1CCOCC1` (racemic) belongs over 10 µM; to `O=C(c1ccc(F)c(F)c1)N1CCN2C(=O)c3ccccc3C12c1ccccn1` (racemic), over 10 µM; to `O=C(c1ccc(F)c(F)c1)N1CCN2C(=O)c3ccccc3C12c1cccnc1` (racemic), over 10 µM.

Consider `O=C(c1ccc(F)c(F)c1)N1CCN2C(=O)c3ccccc3C12c1ccncc1` (racemic), for which, in [4], the IC50 is over 10 µM. Consider `CCOc1ccc(C23c4ccccc4C(=O)N2CCN3C(=O)c2ccc(F)c(F)c2)cc1` (racemic), for which the half-inhibitory concentration (IC50) in [4] was found to be 3.2 µM.

The values are drawn from ChEMBL document CHEMBL3351438, “Further optimization of the M5 NAM MLPCN probe ML375: tactics and challenges” (Bioorg Med Chem Lett, 2015).
